# Publication PMC6150311, “Proline-Based Carbamates as Cholinesterase Inhibitors” (Molecules : A Journal of Synthetic Chemistry and Natural …, 2017)
# How the values were obtained:
# [1] = molecular target: T1, AChE from electric eel (Electrophorus electricus) (Electrophorus electricus, UniProt O42275); assay: In vitro AChE inhibition, modified Ellman's method; type: biochemical
# T1 construct: AChE (from electric eel) and BChE (from equine serum); purchased Sigma, St. Louis, MO, USA; host or cells: electric eel (animal source)
# Experimental: (§1) The ability of all prepared compounds to inhibit AChE from electric eel (Electrophorus electricus) and BChE from equine serum (both purchased from Sigma, St. Louis, MO, USA) was determined in vitro using a modified Ellman’s method. […] The Ellman’s method is widely used for measuring cholinesterase activity and the effectivity of ChEIs. It is a simple, rapid and direct method to determine SH and –S–S– groups content in proteins. Cholinesterase activity is measured indirectly by quantifying the concentration of 5-thio-2-nitrobenzoic acid (TNB) ion formed in the reaction between disulfide reagent 5,5′-dithiobis-2-nitrobenzoic acid (DTNB) and thiocholine, a product of substrate (i.e., acetylthiocholine, ATCh) hydrolysis catalyzed by cholinesterase.
# (§2) All tested compounds were dissolved in DMSO (concentration 0.01 M) and diluted in demineralized water (concentrations 0.001 M and 0.0001 M). The ability of tested compounds to inhibit AChE (from electric eel) and BChE (from equine serum) was determined using the modified Ellman’s method at 25 °C in the presence of phosphate buffered saline (PBS, 0.1 M, pH 7.4) in a glass cuvette with 1 cm optical path. The enzyme activity in total reaction mixture (2 mL) was 0.2 U/mL, the concentration of substrate ATCh 40 μM and the concentration of DTNB 0.1 mM for all reactions. The IC50 value was obtained from the dependence of v0/vi on the concentration of the tested compound (inhibitor), where v0 is the reaction rate of uninhibited reaction and vi is the reaction rate of inhibited reaction (for the given concentration of the inhibitor). First, v0 was determined. Into the cuvette PBS (0.1 M, pH 7.4), DTNB and ATCh were placed. The enzymatic reaction was started by adding the enzyme. […] The measurement was performed in triplicate at least, and average v0 was determined. Then, vi (for the given concentration of the inhibitor) was determined. Into the cuvette DTNB, ATCh, a chosen volume of the suitably diluted inhibitor (to achieve the required concentration of the inhibitor in the total reaction mixture) and a certain volume of PBS (to achieve the total volume of the reaction mixture 2 mL after adding the enzyme) were placed. The enzymatic reaction was started by adding the enzyme. […] For determination of IC50 values, twelve different concentrations of inhibitor were used and each measurement was performed in triplicate at least.
# [2] = tested on: human monocytic leukemia THP-1 cells; assay: In vitro cytotoxicity assay (WST-1); type: cell-based; settings: 24 h, highest tested concentration 30 μM, read-out: tox. IC50
# Experimental: The cytotoxicity was evaluated as the IC50 value (compound concentration causing 50% inhibition of cell population proliferation) (see Table 1). […] Based on these observations, it can be concluded that the discussed compounds can be considered as non-toxic agents for subsequent design of novel drugs.
# Human monocytic leukemia THP-1 cells were used for in vitro toxicity assay. Cells were obtained from the European Collection of Cell Cultures (ECACC, Salisbury, UK) and routinely cultured in RPMI 1640 (Lonza, Verviers, Belgium) medium supplemented with 10% fetal bovine serum (FBS, Sigma), 2% L-glutamine, 1% penicillin and streptomycin (Lonza, Verviers, Belgium) at 37 °C with 5% CO2. Cells were passaged at approximately one week intervals. The cytotoxicity of the compounds was determined using a WST-1 assay kit (Roche Diagnostics, Mannheim, Germany) according to the manufacturer’s instructions. The tested compounds were dissolved in DMSO and added in five increasing concentrations (0.37, 1.1, 3.3, 10, and 30 μM) to the cell suspension in the culture RPMI 1640 medium. The maximum concentration of DMSO (Sigma) in the assays never exceeded 0.1%. Subsequently, the cells were incubated for 24 h at 37 °C with 5% CO2. For WST-1 assays, cells were seeded into 96-well plates (5 × 10^4 cells/well in 100 μL culture medium) in triplicate in serum-free RPMI 1640 medium, and measurements were taken 24 h after the treatment with the compounds. The median inhibition concentration values, IC50, were deduced through the production of a dose-response curve. All data were evaluated using the GraphPad Prism 5.00 software (GraphPad Software, San Diego, CA, USA).
# [3] = molecular target: T2, BChE from equine serum (Equus caballus, UniProt P81908); assay: In vitro BChE inhibition, modified Ellman's method; type: biochemical; settings: for SI (index selectivity) = IC50 (AChE)/IC50 (BChE): ratio AChE/BChE, higher = more selective to BChE
# T2 construct: BChE (from equine serum); purchased Sigma, St. Louis, MO, USA; host or cells: equine serum
# Experimental: as §1, §2
# T1 sequence (O42275 24-633): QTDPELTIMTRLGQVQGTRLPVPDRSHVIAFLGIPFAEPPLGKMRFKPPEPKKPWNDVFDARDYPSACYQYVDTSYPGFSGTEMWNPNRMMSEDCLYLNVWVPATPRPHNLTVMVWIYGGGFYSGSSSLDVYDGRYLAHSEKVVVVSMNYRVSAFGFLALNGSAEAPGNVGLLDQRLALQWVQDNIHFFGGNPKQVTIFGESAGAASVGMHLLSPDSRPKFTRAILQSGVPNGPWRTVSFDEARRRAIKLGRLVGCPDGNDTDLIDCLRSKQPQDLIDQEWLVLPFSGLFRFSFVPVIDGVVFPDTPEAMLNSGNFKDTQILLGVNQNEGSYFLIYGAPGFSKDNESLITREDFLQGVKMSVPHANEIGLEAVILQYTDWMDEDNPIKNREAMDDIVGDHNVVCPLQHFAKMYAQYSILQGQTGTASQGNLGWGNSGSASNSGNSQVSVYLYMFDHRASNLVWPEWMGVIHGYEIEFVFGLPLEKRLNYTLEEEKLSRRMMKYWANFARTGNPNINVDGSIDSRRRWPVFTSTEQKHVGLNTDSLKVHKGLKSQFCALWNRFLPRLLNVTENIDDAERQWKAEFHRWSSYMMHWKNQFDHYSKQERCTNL
# T2 sequence (P81908 whole entry): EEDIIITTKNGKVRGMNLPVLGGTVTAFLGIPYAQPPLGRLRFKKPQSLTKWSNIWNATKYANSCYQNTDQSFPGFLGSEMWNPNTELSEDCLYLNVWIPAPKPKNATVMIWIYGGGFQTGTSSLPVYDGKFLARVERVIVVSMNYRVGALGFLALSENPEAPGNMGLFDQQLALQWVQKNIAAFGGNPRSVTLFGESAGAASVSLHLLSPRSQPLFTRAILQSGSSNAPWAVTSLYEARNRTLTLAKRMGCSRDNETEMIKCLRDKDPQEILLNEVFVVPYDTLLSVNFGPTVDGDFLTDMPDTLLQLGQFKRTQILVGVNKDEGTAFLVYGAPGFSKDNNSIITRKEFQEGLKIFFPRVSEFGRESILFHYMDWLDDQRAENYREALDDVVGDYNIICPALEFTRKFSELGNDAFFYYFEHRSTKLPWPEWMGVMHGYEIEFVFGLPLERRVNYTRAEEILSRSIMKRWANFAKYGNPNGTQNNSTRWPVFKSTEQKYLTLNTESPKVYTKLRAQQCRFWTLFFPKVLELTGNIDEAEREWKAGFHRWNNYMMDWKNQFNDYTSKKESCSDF
SMILES,IC50 [1] [µM],IC50 [2] [µM],IC50 [3] [µM],SI (index selectivity) = IC50 (AChE)/IC50 (BChE) [3],selectivity to BChE (in words) ([3]; BChE vs AChE)
"O=C(Nc1ccccc1)[C@@H]1CCCN1C(=O)OCc1ccccc1 [Compound 1, Benzyl (2S)-2-(phenylcarbamoyl)pyrrolidine-1-carboxylate]",106 ± 2.2,> 30,55.6 ± 1.01,1.91,–
"COc1ccccc1NC(=O)[C@@H]1CCCN1C(=O)OCc1ccccc1 [Compound 2a, Benzyl (2S)-2-[(2-methoxyphenyl)carbamoyl]pyrrolidine-1-carboxylate]",131 ± 1.29,> 30,51.5 ± 0.75,2.54,–
"COc1cccc(NC(=O)[C@@H]2CCCN2C(=O)OCc2ccccc2)c1 [Compound 2b, Benzyl (2S)-2-[(3-methoxyphenyl)carbamoyl]pyrrolidine-1-carboxylate]",126 ± 2.79,> 30,58.47 ± 0.42,2.16,–
"COc1ccc(NC(=O)[C@@H]2CCCN2C(=O)OCc2ccccc2)cc1 [Compound 2c, Benzyl (2S)-2-[(4-methoxyphenyl)carbamoyl]pyrrolidine-1-carboxylate]",109.4 ± 0.22,> 30,117.4 ± 0.45,0.93,–
"Cc1ccccc1NC(=O)[C@@H]1CCCN1C(=O)OCc1ccccc1 [Compound 3a, Benzyl (2S)-2-[(2-methylphenyl)carbamoyl]pyrrolidine-1-carboxylate]",61.9 ± 1.35,> 30,98.3 ± 5.88,0.63,–
"Cc1cccc(NC(=O)[C@@H]2CCCN2C(=O)OCc2ccccc2)c1 [Compound 3b, Benzyl (2S)-2-[(3-methylphenyl)carbamoyl]pyrrolidine-1-carboxylate]",81.06 ± 0.03,> 30,115 ± 4.83,0.71,–
"Cc1ccc(NC(=O)[C@@H]2CCCN2C(=O)OCc2ccccc2)cc1 [Compound 3c, Benzyl (2S)-2-[(4-methylphenyl)carbamoyl]pyrrolidine-1-carboxylate]",123.4 ± 0.44,> 30,153 ± 2.29,0.81,–
"O=C(Nc1ccccc1F)[C@@H]1CCCN1C(=O)OCc1ccccc1 [Compound 4a, Benzyl (2S)-2-[(2-fluorophenyl)carbamoyl]pyrrolidine-1-carboxylate]",51.9 ± 0.76,> 30,60,0.86,–
"O=C(Nc1cccc(F)c1)[C@@H]1CCCN1C(=O)OCc1ccccc1 [Compound 4b, Benzyl (2S)-2-[(3-fluorophenyl)carbamoyl]pyrrolidine-1-carboxylate]",69.88 ± 0.21,> 30,34.61 ± 0.11,2.02,–
"O=C(Nc1ccc(F)cc1)[C@@H]1CCCN1C(=O)OCc1ccccc1 [Compound 4c, Benzyl (2S)-2-[(4-fluorophenyl)carbamoyl]pyrrolidine-1-carboxylate]",87.2 ± 1,> 30,58.1 ± 1.39,1.50,–
"O=C(Nc1ccccc1Cl)[C@@H]1CCCN1C(=O)OCc1ccccc1 [Compound 5a, Benzyl (2S)-2-[(2-chlorophenyl)carbamoyl]pyrrolidine-1-carboxylate]",46.4 ± 1.05,> 30,53.47 ± 0.52,0.87,–
"O=C(Nc1cccc(Cl)c1)[C@@H]1CCCN1C(=O)OCc1ccccc1 [Compound 5b, Benzyl (2S)-2-[(3-chlorophenyl)carbamoyl]pyrrolidine-1-carboxylate]",48.27 ± 0.11,> 30,64.2 ± 7.14,0.75,–
"O=C(Nc1ccc(Cl)cc1)[C@@H]1CCCN1C(=O)OCc1ccccc1 [Compound 5c, Benzyl (2S)-2-[(4-chlorophenyl)carbamoyl]pyrrolidine-1-carboxylate]",77.3 ± 3.8,> 30,147.3 ± 1.18,0.52,–
"O=C(Nc1ccccc1Br)[C@@H]1CCCN1C(=O)OCc1ccccc1 [Compound 6a, Benzyl (2S)-2-[(2-bromophenyl)carbamoyl]pyrrolidine-1-carboxylate]",84.1 ± 4.39,> 30,27.4 ± 0.85,3.07,greater selectivity to BChE
"O=C(Nc1cccc(Br)c1)[C@@H]1CCCN1C(=O)OCc1ccccc1 [Compound 6b, Benzyl (2S)-2-[(3-bromophenyl)carbamoyl]pyrrolidine-1-carboxylate]",74.16 ± 0.2,> 30,47.68 ± 0.08,1.56,–
"O=C(Nc1ccc(Br)cc1)[C@@H]1CCCN1C(=O)OCc1ccccc1 [Compound 6c, Benzyl (2S)-2-[(4-bromophenyl)carbamoyl]pyrrolidine-1-carboxylate]",81.32 ± 0.67,> 30,28.2 ± 0.5,2.88,–
"O=C(Nc1ccccc1C(F)(F)F)[C@@H]1CCCN1C(=O)OCc1ccccc1 [Compound 7a, Benzyl (2S)-2-{[2-(trifluoromethyl)phenyl]carbamoyl}pyrrolidine-1-carboxylate]",73.2 ± 2.88,> 30,44.9 ± 1.66,1.63,–
"O=C(Nc1cccc(C(F)(F)F)c1)[C@@H]1CCCN1C(=O)OCc1ccccc1 [Compound 7b, Benzyl (2S)-2-{[3-(trifluoromethyl)phenyl]carbamoyl}pyrrolidine-1-carboxylate]",68.91 ± 0.06,> 30,39.5 ± 1.4,1.75,–
"O=C(Nc1ccc(C(F)(F)F)cc1)[C@@H]1CCCN1C(=O)OCc1ccccc1 [Compound 7c, Benzyl (2S)-2-{[4-(trifluoromethyl)phenyl]carbamoyl}pyrrolidine-1-carboxylate]",88.6 ± 1.6,> 30,75.5 ± 2.94,1.17,–
"O=C(Nc1ccccc1[N+](=O)[O-])[C@@H]1CCCN1C(=O)OCc1ccccc1 [Compound 8a, Benzyl (2S)-2-[(2-nitrophenyl)carbamoyl]pyrrolidine-1-carboxylate]",152.21 ± 0.01,> 30,48.7 ± 0.8,3.13,–
"O=C(Nc1cccc([N+](=O)[O-])c1)[C@@H]1CCCN1C(=O)OCc1ccccc1 [Compound 8b, Benzyl (2S)-2-[(3-nitrophenyl)carbamoyl]pyrrolidine-1-carboxylate]",65 ± 0.97,> 30,55.9 ± 0.63,1.16,–
"O=C(Nc1ccc([N+](=O)[O-])cc1)[C@@H]1CCCN1C(=O)OCc1ccccc1 [Compound 8c, Benzyl (2S)-2-[(4-nitrophenyl)carbamoyl]pyrrolidine-1-carboxylate]",84.52 ± 0.06,> 30,58.75 ± 0.27,1.44,–
